From article PMC8016831, “Structure–function engineering of novel fish gelatin-derived multifunctional peptides using high-resolution peptidomics and bioinformatics” (Scientific Reports, 2021)
Ends that are not written are not given here.

Legend:
[1] = molecular target: angiotensin-converting enzyme (ACE) (Homo sapiens, UniProt P12821); assay: In vitro antihypertensive assay (ACE inhibition, FAPGG, spectrophotometric); format: biochemical
Experimental: A spectrophotometrical method was used to determine the antihypertensive activity of peptides according to the procedure of Asoodeh, et al.[18], with some modifications. ACE (22 µL at 50 mU mL^−1) was mixed with 50 µL of the peptides at increasing concentrations (0.1, 0.2, 0.4, 0.8, 1, and 2 mg mL^−1). FAPGG (100 µL at 0.5 mM) and 150 µL of ACE buffer (50 mM Tris-HCl [pH 7.5] containing 0.3 M NaCl and 1 mM ZnCl2) were added to the mixture, followed by monitoring at 340 nm for 60 min. The antihypertensive activity was calculated as follows:2 Antihypertensiveactivity%=1-ΔAbssample/ΔAbscontrol×100
The ACE buffer was added to the mixture instead of the peptides for control. For determination of the experiment precision, captopril (15 nM) was used as positive control. The half maximal inhibitory concentration (IC50) was defined as the concentration of the peptides at which 50% of ACE activity was inhibited. All experiments were performed in triplicate.

S. aureus (ATCC 6538) = format: cell-based, Staphylococcus aureus; conditions: ATCC 6538, 24 h
Experimental: (§1) The hydrolysates were investigated for their antibacterial activity against E. coli (ATCC 8739), P. aeruginosa (ATCC 9027), S. aureus (ATCC 6538), and K. pneumoniae (ATCC 43816) using the […]. Briefly, 50 μL of different concentrations of peptides were prepared in sterile Mueller Hinton broth. A volume of 30 μL of resazurin indicator solution (0.02%) was added to each well. An equal volume of bacterial suspension (0.5 McFarland standard) and sterile Mueller Hinton broth was then added to the well and incubated at 37 °C for 24 h. Sterile Mueller Hinton broth and 20 μg mL^−1 gentamycin were used as blank and positive controls, respectively. Afterward, the minimum inhibitory concentration (MIC) was determined as the lowest concentration of the peptides at which no visible growth was observed, compared to the positive control. All dilutions were performed in duplicate.

[2] = tested on: P. aeruginosa (ATCC 9027); format: cell-based, Pseudomonas aeruginosa; conditions: ATCC 9027, 24 h
Experimental: as §1

in vitro = format: cell-based; conditions: human, Caco-2 cells
Experimental: The synthesized peptides were investigated for ACE and DPP-IV inhibitory activity, and antibacterial potential against E. coli, P. aeruginosa, S. aureus, and K. pneumoniae. Their cytotoxicity was also analyzed using the method described by Benjakul et al.[20], with some modifications. Briefly, Caco-2 and L929 cell lines were cultured in Dulbecco's Modified Eagle Medium and the RAW264.7 cell line in RPMI 1640 medium and incubated at 5% CO2 and 37 °C. All media were supplemented with 10% fetal bovine serum. Each cell line (100 µL at 2 × 10^4 cells mL^−1) was seeded onto 96-well microplates and mixed with an equal volume of each peptide at 1, 2, 4, and 6 mg mL^−1. Subsequently, the microplate was incubated for 72 h, followed by a cell viability assay using the MTT I proliferation kit (Roche Diagnostics, Basel, Switzerland). The absorbance was recorded at 570 nm.

[3] = tested on: K. pneumoniae (ATCC 43816); format: cell-based, Klebsiella pneumoniae; conditions: ATCC 43816, 24 h
Experimental: as §1

E. coli (ATCC 8739) = format: cell-based, Escherichia coli; conditions: ATCC 8739, 24 h
Experimental: as §1

[4] = molecular target: dipeptidyl peptidase IV (DPP-IV) (Homo sapiens, UniProt P27487); assay: In vitro antidiabetic assay (DPP-IV inhibition); format: biochemical
Experimental: To assess antidiabetic activity, a pre-incubated solution (50 μL) containing 30 μL Tris-HCl buffer, 5 μL of peptides (0.1, 0.2, 0.4, 0.8, 1, 2, and 4 mg mL^−1) or standard (5 μM), and 15 μL […] were poured into the wells of a 96-well microplate. Afterward, 50 μL DPP-IV (0.02 U mL^−1) was added to the mixture and incubated at 37 °C for 30 min. The reaction was stopped by adding 100 μL sodium acetate (1 M, pH 4). Absorbance at 405 nm was measured in a microplate reader. Diprotein-A (isoleucine-proline-isoleucine) was used as a standard DPP-IV inhibitor. The antidiabetic activity was calculated as follows:3 DPP - IVinhibitoryactivity(%)=1-Asample-Ablanck/Apositicecontrol-Anegativecontrol×100
Tris-HCl (100 mM) was added to the mixture instead of DPP-IV, peptide, or peptide plus DPP-IV to represent a blank, positive, and negative control, respectively.

ACE = conditions: cited from earlier work
DPP-IV = tested on: DPP-IV; parameters: method as in PMID 26323964; conditions: cited from earlier work

Chain of dipeptidyl peptidase IV (DPP-IV) (P27487 whole entry, species assumed): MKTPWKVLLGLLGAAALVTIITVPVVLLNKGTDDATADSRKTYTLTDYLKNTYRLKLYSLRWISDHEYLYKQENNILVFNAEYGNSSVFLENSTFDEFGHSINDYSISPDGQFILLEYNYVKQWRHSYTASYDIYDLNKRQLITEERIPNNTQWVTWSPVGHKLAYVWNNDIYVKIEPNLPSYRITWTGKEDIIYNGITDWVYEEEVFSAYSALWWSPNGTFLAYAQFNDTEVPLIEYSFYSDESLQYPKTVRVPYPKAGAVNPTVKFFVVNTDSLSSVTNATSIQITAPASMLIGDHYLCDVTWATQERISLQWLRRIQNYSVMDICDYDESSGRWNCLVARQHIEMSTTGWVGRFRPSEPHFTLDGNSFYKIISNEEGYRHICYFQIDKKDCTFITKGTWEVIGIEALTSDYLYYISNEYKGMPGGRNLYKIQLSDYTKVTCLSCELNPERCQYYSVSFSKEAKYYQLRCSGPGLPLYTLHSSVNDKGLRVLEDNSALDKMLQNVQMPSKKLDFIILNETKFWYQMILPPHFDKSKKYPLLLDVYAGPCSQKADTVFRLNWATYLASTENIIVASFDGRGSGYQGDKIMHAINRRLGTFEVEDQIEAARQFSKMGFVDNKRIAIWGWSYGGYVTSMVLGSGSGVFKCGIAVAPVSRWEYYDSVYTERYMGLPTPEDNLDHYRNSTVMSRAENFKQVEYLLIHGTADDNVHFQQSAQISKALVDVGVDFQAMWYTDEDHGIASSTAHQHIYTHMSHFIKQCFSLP
Chain of angiotensin-converting enzyme (ACE) (P12821 30-1306, species assumed): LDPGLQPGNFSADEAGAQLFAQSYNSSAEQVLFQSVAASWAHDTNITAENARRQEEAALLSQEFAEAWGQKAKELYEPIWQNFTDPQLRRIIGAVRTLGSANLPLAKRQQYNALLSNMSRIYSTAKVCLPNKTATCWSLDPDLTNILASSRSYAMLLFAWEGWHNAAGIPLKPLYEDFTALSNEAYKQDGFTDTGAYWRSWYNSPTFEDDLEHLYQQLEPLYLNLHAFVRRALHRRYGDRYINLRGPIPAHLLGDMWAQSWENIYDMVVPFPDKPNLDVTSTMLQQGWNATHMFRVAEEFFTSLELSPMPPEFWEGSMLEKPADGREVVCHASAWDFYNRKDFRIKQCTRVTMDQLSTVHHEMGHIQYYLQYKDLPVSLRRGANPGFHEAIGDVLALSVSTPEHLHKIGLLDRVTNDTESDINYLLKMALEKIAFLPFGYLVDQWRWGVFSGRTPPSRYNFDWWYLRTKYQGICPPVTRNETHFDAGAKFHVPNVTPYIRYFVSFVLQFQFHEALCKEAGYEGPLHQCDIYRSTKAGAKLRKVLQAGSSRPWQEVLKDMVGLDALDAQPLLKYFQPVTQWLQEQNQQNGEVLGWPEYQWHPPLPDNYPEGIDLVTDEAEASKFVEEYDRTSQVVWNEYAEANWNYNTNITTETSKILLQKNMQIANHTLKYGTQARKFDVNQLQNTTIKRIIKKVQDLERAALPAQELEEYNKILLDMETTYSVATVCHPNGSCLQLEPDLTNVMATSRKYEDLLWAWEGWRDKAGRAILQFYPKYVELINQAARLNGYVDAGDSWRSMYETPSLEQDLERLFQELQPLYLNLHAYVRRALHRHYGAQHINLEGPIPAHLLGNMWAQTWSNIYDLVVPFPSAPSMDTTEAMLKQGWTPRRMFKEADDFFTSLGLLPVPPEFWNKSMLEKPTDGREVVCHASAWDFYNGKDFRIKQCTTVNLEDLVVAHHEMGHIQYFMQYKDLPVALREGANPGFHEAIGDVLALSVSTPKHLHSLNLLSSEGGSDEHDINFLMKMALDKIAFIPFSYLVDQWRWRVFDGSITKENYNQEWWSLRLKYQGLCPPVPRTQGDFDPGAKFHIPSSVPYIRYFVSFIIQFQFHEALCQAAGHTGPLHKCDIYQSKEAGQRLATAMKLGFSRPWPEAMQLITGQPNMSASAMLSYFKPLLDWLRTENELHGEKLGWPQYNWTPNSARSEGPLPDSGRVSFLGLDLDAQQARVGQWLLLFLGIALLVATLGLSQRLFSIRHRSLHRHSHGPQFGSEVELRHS

| Substance | IC50 [1] [µM] | MIC against S. aureus (S. aureus (ATCC 6538)) [µg/mL] | MIC against P. aeruginosa [2] [µg/mL] | viability at 72 h, 6 mg mL^−1 (in vitro) [%] | MIC against K. pneumoniae [3] [µg/mL] | MIC for E. coli (E. coli (ATCC 8739)) [µg/mL] | IC50 [4] [µM] | ACE inhibition (ACE) [%] | DPP-IV inhibitory activities (DPP-IV) |
| --- | --- | --- | --- | --- | --- | --- | --- | --- | --- |
| MTGTQGEAGR-NH2 [P3, MTGTQGEAGR] | 775 | 200 | 1660 | 95.9 | 1500 | 460 | 1150 | – | – |
| VLAQYK | – | – | – | – | – | – | – | 30.1 | – |
| SPTVMFPPQSVL | – | – | – | – | – | – | – | – | moderate |
| GRDGEP-NH2 [P2, GRDGEP] | 811 | 1160 | ≥ 2000 | 95.8 | ≥ 2000 | 1330 | 1480 | – | – |
| MHQPPQPL | – | – | – | – | – | – | – | – | moderate |
